What was measured:
Experiment in all cases: relative viability (nuclei count vs DMSO), 5 days (fraction); higher = more cells survive
Dinaciclib = compound: CCc1cnn2c(NCc3ccc[n+]([O-])c3)cc(N3CCCC[C@H]3CCO)nc12 [Dinaciclib]
Procedure, shortened: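 Lung cancer cell lines were seeded into 1536-well plates, kept overnight at 37 °C and pinned with five library-drug doses (not always all listed) spaced by √10. After 5 days, nuclei were Hoechst-stained, imaged at 4× and counted with MetaXpress. Viability is treated-well nuclei over vehicle-well nuclei, taken as a median across plates. Plates needed control CV below 25% and at least one doubling.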

Dinaciclib + Alpelisib = compound: CCc1cnn2c(NCc3ccc[n+]([O-])c3)cc(N3CCCC[C@H]3CCO)nc12 [Dinaciclib] + Cc1nc(NC(=O)N2CCC[C@H]2C(N)=O)sc1-c1ccnc(C(C)(C)C(F)(F)F)c1 [Alpelisib] (partner 2 µM)
Procedure, shortened: (§1)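 For relative viability, nuclei counts in treated wells were divided by those in vehicle wells. Lung cancer cell lines had been pin-tool dosed in 1536-well plates the day after seeding and cultured for 5 days, then fixed and stained in one step (final 0.05% Triton X-100, 1% formaldehyde, 1 ug/ml Hoechst) and imaged at 4×. Doses were one drug alone or a fixed anchor-drug dose plus five library-drug doses (not always all listed) in √10 steps, and values are duplicate-plate medians.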

Dinaciclib + Vorinostat = compound: CCc1cnn2c(NCc3ccc[n+]([O-])c3)cc(N3CCCC[C@H]3CCO)nc12 [Dinaciclib] + O=C(CCCCCCC(=O)Nc1ccccc1)NO [Vorinostat] (partner 1 µM)
Procedure, shortened: as §1

Dinaciclib + Olaparib = compound: CCc1cnn2c(NCc3ccc[n+]([O-])c3)cc(N3CCCC[C@H]3CCO)nc12 [Dinaciclib] + O=C(c1cc(Cc2n[nH]c(=O)c3ccccc23)ccc1F)N1CCN(C(=O)C2CC2)CC1 [Olaparib] (partner 8 µM)
Procedure, shortened: as §1

Dinaciclib + Lapatinib = compound: CCc1cnn2c(NCc3ccc[n+]([O-])c3)cc(N3CCCC[C@H]3CCO)nc12 [Dinaciclib] + CS(=O)(=O)CCNCc1ccc(-c2ccc3ncnc(Nc4ccc(OCc5cccc(F)c5)c(Cl)c4)c3c2)o1 [Lapatinib] (partner 2 µM)
Procedure, shortened: as §1

Dinaciclib + Pictilisib = compound: CCc1cnn2c(NCc3ccc[n+]([O-])c3)cc(N3CCCC[C@H]3CCO)nc12 [Dinaciclib] + CS(=O)(=O)N1CCN(Cc2cc3nc(-c4cccc5[nH]ncc45)nc(N4CCOCC4)c3s2)CC1 [Pictilisib] (partner 1 µM)
Procedure, shortened: as §1

Dinaciclib + Linsitinib = compound: CCc1cnn2c(NCc3ccc[n+]([O-])c3)cc(N3CCCC[C@H]3CCO)nc12 [Dinaciclib] + C[C@]1(O)C[C@@H](c2nc(-c3ccc4ccc(-c5ccccc5)nc4c3)c3c(N)nccn32)C1 [Linsitinib] (partner 1 µM)
Procedure, shortened: as §1

Dinaciclib + Foretinib = compound: CCc1cnn2c(NCc3ccc[n+]([O-])c3)cc(N3CCCC[C@H]3CCO)nc12 [Dinaciclib] + COc1cc2c(Oc3ccc(NC(=O)C4(C(=O)Nc5ccc(F)cc5)CC4)cc3F)ccnc2cc1OCCCN1CCOCC1 [Foretinib] (partner 0.25 µM)
Procedure, shortened: as §1

Dinaciclib + Crizotinib = compound: CCc1cnn2c(NCc3ccc[n+]([O-])c3)cc(N3CCCC[C@H]3CCO)nc12 [Dinaciclib] + C[C@@H](Oc1cc(-c2cnn(C3CCNCC3)c2)cnc1N)c1c(Cl)ccc(F)c1Cl [Crizotinib] (partner 1 µM)
Procedure, shortened: as §1

Dinaciclib + Navitoclax = compound: CCc1cnn2c(NCc3ccc[n+]([O-])c3)cc(N3CCCC[C@H]3CCO)nc12 [Dinaciclib] + CC1(C)CCC(c2ccc(Cl)cc2)=C(CN2CCN(c3ccc(C(=O)NS(=O)(=O)c4ccc(N[C@H](CCN5CCOCC5)CSc5ccccc5)c(S(=O)(=O)C(F)(F)F)c4)cc3)CC2)C1 [Navitoclax] (partner 0.5 µM)
Procedure, shortened: as §1

Dinaciclib + Bortezomib = compound: CCc1cnn2c(NCc3ccc[n+]([O-])c3)cc(N3CCCC[C@H]3CCO)nc12 [Dinaciclib] + CC(C)C[C@H](NC(=O)[C@H](Cc1ccccc1)NC(=O)c1cnccn1)B(O)O [Bortezomib] (partner 0.002 µM)
Procedure, shortened: as §1

With IA-LM the relative viability (Dinaciclib; 0.009487 µM) was 0.804, the relative viability (Dinaciclib; 0.03 µM) was 0.286 and the relative viability (Dinaciclib; 0.09487 µM) was 0.0334. It also gave a relative viability (Dinaciclib; 0.3 µM) of 0.0226, a relative viability (Dinaciclib + Alpelisib; first compound 0.009487 µM) of 0.669 and a relative viability (Dinaciclib + Alpelisib; first compound 0.03 µM) of 0.0488. It also gave a relative viability (Dinaciclib + Alpelisib; first compound 0.09487 µM) of 0.0282, a relative viability (Dinaciclib + Alpelisib; first compound 0.3 µM) of 0.0261 and a relative viability (Dinaciclib + Vorinostat; first compound 0.009487 µM) of 0.973. For the same cell line, the relative viability (Dinaciclib + Vorinostat; first compound 0.03 µM) was 0.547, the relative viability (Dinaciclib + Vorinostat; first compound 0.09487 µM) was 0.0376 and the relative viability (Dinaciclib + Vorinostat; first compound 0.3 µM) was 0.0379. The relative viability (Dinaciclib + Olaparib; first compound 0.009487 µM) was 0.88, the relative viability (Dinaciclib + Olaparib; first compound 0.03 µM) was 0.0461 and the relative viability (Dinaciclib + Olaparib; first compound 0.09487 µM) was 0.0398. It also gave a relative viability (Dinaciclib + Olaparib; first compound 0.3 µM) of 0.0287, a relative viability (Dinaciclib + Lapatinib; first compound 0.009487 µM) of 0.73 and a relative viability (Dinaciclib + Lapatinib; first compound 0.03 µM) of 0.0584. It also gave a relative viability (Dinaciclib + Lapatinib; first compound 0.09487 µM) of 0.053, a relative viability (Dinaciclib + Lapatinib; first compound 0.3 µM) of 0.0435 and a relative viability (Dinaciclib + Pictilisib; first compound 0.009487 µM) of 0.327. For the same cell line, the relative viability (Dinaciclib + Pictilisib; first compound 0.03 µM) was 0.0323, the relative viability (Dinaciclib + Pictilisib; first compound 0.09487 µM) was 0.0279 and the relative viability (Dinaciclib + Pictilisib; first compound 0.3 µM) was 0.0329. It also gave a relative viability (Dinaciclib + Linsitinib; first compound 0.009487 µM) of 0.664, a relative viability (Dinaciclib + Linsitinib; first compound 0.03 µM) of 0.27 and a relative viability (Dinaciclib + Linsitinib; first compound 0.09487 µM) of 0.028. The relative viability (Dinaciclib + Linsitinib; first compound 0.3 µM) was 0.0252, the relative viability (Dinaciclib + Foretinib; first compound 0.009487 µM) was 1.01 and the relative viability (Dinaciclib + Foretinib; first compound 0.03 µM) was 0.0352. For the same cell line, the relative viability (Dinaciclib + Foretinib; first compound 0.09487 µM) was 0.0148, the relative viability (Dinaciclib + Foretinib; first compound 0.3 µM) was 0.0125 and the relative viability (Dinaciclib + Crizotinib; first compound 0.009487 µM) was 0.725. The relative viability (Dinaciclib + Crizotinib; first compound 0.03 µM) was 0.0572, the relative viability (Dinaciclib + Crizotinib; first compound 0.09487 µM) was 0.0441 and the relative viability (Dinaciclib + Crizotinib; first compound 0.3 µM) was 0.0336. The relative viability (Dinaciclib + Navitoclax; first compound 0.009487 µM) was 0.695, the relative viability (Dinaciclib + Navitoclax; first compound 0.03 µM) was 0.0044 and the relative viability (Dinaciclib + Navitoclax; first compound 0.09487 µM) was 0.0033. For the same cell line, the relative viability (Dinaciclib + Navitoclax; first compound 0.3 µM) was 0.0072, the relative viability (Dinaciclib + Bortezomib; first compound 0.009487 µM) was 0.72 and the relative viability (Dinaciclib + Bortezomib; first compound 0.03 µM) was 0.0186. For the same cell line, the relative viability (Dinaciclib + Bortezomib; first compound 0.09487 µM) was 0.019 and the relative viability (Dinaciclib + Bortezomib; first compound 0.3 µM) was 0.014.
